Patent publication US20130217723A1, “Pharmaceutical Composition Combining Tenatoprazole and an Anti-Inflammatory Agent” (priority 2002, published 2013)
Read-outs that look alike come from different tables or passages of the source.

Key:
[1] = patients under treatment; cited from earlier work
[2] = Phase I pharmacokinetic study of oral tenatoprazole, single dose and daily dose for 7 days; type: in vivo, human (Caucasian individuals); conditions: for half-life: human, plasma, oral, depending on the dose (10-80 mg), read-out: mean elimination half-lives
Method: The doses tested were 10, 20, 40 and 80 mg of tenatoprazole.
In this table, the abbreviations employed have the following meanings: • Cmax maximum concentration • Tmax time required to attain maximum concentration • T1/2 elimination half-life • AUC0-t area under the curve, between time 0 and the last measurable concentration.

Row | half-life ([2]; after a single dose) [h] | half-life ([2]; after administration for seven days) [h] | Cmax, AUC0-t and AUC0-inf values versus dose ([2]; single or repeated administration, AUC0-inf calculated by extrapolation) | SMILES | percentage of minor disorders observed in patients: dyspeptic symptoms [1] [%] | percentage of minor disorders observed in patients: gastric pain [1] [%] | percentage of minor disorders observed in patients: nausea [1] [%] | plasma half-life/pump regeneration time ratio ([2]; compared with other proton pump inhibitors)
1 |  |  |  | Cc1ccc(-c2cc(C(F)(F)F)nn2-c2ccc(S(N)(=O)=O)cc2)cc1 [celecoxib] | 4.8 | 4.8 | 2.4 | 
2 | 5 to 6 | 5 to 9.5 | increased in a linear fashion | COc1ccc2[nH]c([S+]([O-])Cc3ncc(C)c(OC)c3C)nc2n1 (stereo not shown) [tenatoprazole, 5-methoxy-2-[[(4-methoxy-3,5-dimethyl-2-pyridyl)methyl]sulfinyl]imidazo[4,5-b]pyridine] |  |  |  | notably higher than that seen with other proton pump inhibitors
